Consider 14 compounds from publication PMC11549994, “A dTDP-L-rhamnose 4-epimerase required for glycopeptidolipid biosynthesis in Mycobacterium abscessus” (The Journal of Biological Chemistry, 2024).

The test system of experiment [1] is T1, M. abscessus CIP104536T (S).
T1 construct: CIP104536T smooth (S) morphotype
The experiment in a line: microbe, parasite or virus in culture. Set-up: species or system Mycobacteroides abscessus CIP104536T; antibiotic susceptibility testing, MIC of drugs against M. abscessus strains. The settings on record: Mycobacteroides abscessus, read-out: MIC (µg/mL) (phenotypea) / S. Here is the method: (§1) M. abscessus CIP104536^T (S) and CIP104536^T (R) strains used in this study were previously sequenced and their genomic differences identified and characterized ([13], [60]). Mycobacteria were grown in Middlebrook 7H9 broth (BD) supplemented with 0.025% tyloxapol and 10% oleic acid-albumin-dextrose-catalase (OADC) enrichment (7H9^OADC) or on Middlebrook 7H10 agar (BD) containing 10% OADC (7H10^OADC) at 37 °C, with antibiotics when required. A Bio-Rad Gene pulser (25 μF, 2500 V, 800 Ω) was used to transform electrocompetent mycobacteria. After transformation, strains carrying the pMV306 ([48]) derivatives were selected on 250 μg/ml kanamycin.

Experiment [2] relates to T2, M. abscessus CIP104536T (R).
T2 construct: CIP104536T rough (R) morphotype
Description: microbe, parasite or virus in culture. Also noted: species or system Mycobacteroides abscessus CIP104536T; antibiotic susceptibility testing, MIC of drugs against M. abscessus strains. The settings on record: Mycobacteroides abscessus, read-out: MIC (µg/mL) (phenotypea) / R. The method, then:
as §1

For experiment [3] the test system is unchanged. Description: microbe, parasite or virus in culture. As to conditions: Mycobacteroides abscessus, read-out: MIC (µg/mL) (phenotypea) / R. Set-up: species or system Mycobacteroides abscessus CIP104536T; antibiotic susceptibility testing, MIC of drugs against M. abscessus strains. Here is the method: as §1
The source holds these as a separate data set.

In experiment [4] the test system is T1, M. abscessus CIP104536T (S). Description: microbe, parasite or virus in culture. The settings on record: Mycobacteroides abscessus, read-out: MIC (µg/mL) (phenotypea) / S. Also noted: species or system Mycobacteroides abscessus CIP104536T; antibiotic susceptibility testing, MIC of drugs against M. abscessus strains. Here is the method: as §1
The source holds these as a separate data set.

Another experiment deals with T3, MAB_4111c (Tle) (Mycobacteroides abscessus, UniProt B1MIG3).
T3 construct: full-length, 353 residues, six-histidine tag from pET30 (kept), expressed in E. coli BL21 Star DE3; partially purified Ni-bead-enriched fraction
T3 sequence (B1MIG3 entry or part of it): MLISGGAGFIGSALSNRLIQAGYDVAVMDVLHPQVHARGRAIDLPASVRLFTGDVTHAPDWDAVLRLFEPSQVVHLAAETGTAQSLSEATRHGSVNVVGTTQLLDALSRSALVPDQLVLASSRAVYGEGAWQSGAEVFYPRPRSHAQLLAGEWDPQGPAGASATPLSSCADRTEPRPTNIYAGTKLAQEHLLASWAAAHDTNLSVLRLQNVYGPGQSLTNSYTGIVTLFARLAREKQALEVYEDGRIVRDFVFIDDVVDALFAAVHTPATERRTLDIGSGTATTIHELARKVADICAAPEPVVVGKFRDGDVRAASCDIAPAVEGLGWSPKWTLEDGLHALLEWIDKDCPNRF
The experiment in a line: reverse reaction, formation of dTDP-Rha (data not shown). The settings on record: 60 min, also the product of the forward reaction, partially purified Ni-bead fraction. Format: biochemical.

Read-outs that look alike come from different tables or passages of the source.

Take `NCC[C@H](O)C(=O)N[C@@H]1C[C@H](N)[C@@H](O[C@H]2O[C@H](CN)[C@@H](O)[C@H](O)[C@H]2O)[C@H](O)[C@H]1O[C@H]1O[C@H](CO)[C@@H](O)[C@H](N)[C@H]1O` [Amikacin]: the MIC in experiment [1] came to 16 µg/mL; in experiment [2] it was 32 µg/mL.
On to `CO/N=C(\C(=O)N[C@@H]1C(=O)N2C(C(=O)[O-])=C(C[N+]3(C)CCCC3)CS[C@H]12)c1csc(N)n1` [Cefepime], for which the MIC in experiment [1] and in experiment [2] was greater than 32 µg/mL in each case.
As to `CO[C@@]1(NC(=O)Cc2cccs2)C(=O)N2C(C(=O)O)=C(COC(N)=O)CS[C@@H]21` [Cefoxitin], the MIC in experiment [1] was 64 µg/mL; in experiment [2], 128 µg/mL.
The matching figures for `CO/N=C(\C(=O)N[C@@H]1C(=O)N2C(C(=O)O)=C(CSc3nc(=O)c(O)nn3C)CS[C@H]12)c1csc(N)n1` [Ceftriaxone]: greater than 64 µg/mL and greater than 64 µg/mL.
As for `CC[C@H]1OC(=O)[C@H](C)[C@@H](O[C@H]2C[C@@](C)(OC)[C@@H](O)[C@H](C)O2)[C@H](C)[C@@H](O[C@@H]2O[C@H](C)C[C@H](N(C)C)[C@H]2O)[C@](C)(OC)C[C@@H](C)C(=O)[C@H](C)[C@@H](O)[C@]1(C)O` [Clarithromycin], the MIC in experiment [3] is greater than 16 µg/mL; in experiment [1], 8 µg/mL; in experiment [2], 4 µg/mL; in experiment [4], greater than 16 µg/mL.
With `C[C@H]1c2cccc(O)c2C(=O)C2=C(O)[C@]3(O)C(=O)C(C(N)=O)=C(O)[C@@H](N(C)C)[C@@H]3[C@@H](O)[C@@H]21` [Doxycycline], the MIC in experiment [1] and in experiment [2] was greater than 16 µg/mL in each case.
Take `C[C@@H](O)[C@H]1C(=O)N2C(C(=O)O)=C(SCCNC=N)C[C@H]12` [Imipenem]: the MIC in experiment [1] and in experiment [2] was 64 µg/mL throughout.
With `CC(=O)NC[C@H]1CN(c2ccc(N3CCOCC3)c(F)c2)C(=O)O1` [Linezolid], the MIC in experiment [1] and in experiment [2] was 32 µg/mL each time.
For `CN(C)c1ccc(O)c2c1C[C@H]1C[C@H]3[C@H](N(C)C)C(O)=C(C(N)=O)C(=O)[C@@]3(O)C(O)=C1C2=O` [Minocycline], the MIC in experiment [1] and in experiment [2] was greater than 8 µg/mL each time.
For `COc1c(N2C[C@@H]3CCCN[C@@H]3C2)c(F)cc2c(=O)c(C(=O)O)cn(C3CC3)c12` [Moxifloxacin], the MIC in experiment [1] and in experiment [2] was greater than 8 µg/mL in each case.
Consider `CO[C@H]1/C=C/O[C@@]2(C)Oc3c(C)c(O)c4c(c3C2=O)C2=NC3(CCN(CC(C)C)CC3)NC2=C(NC(=O)/C(C)=C\C=C\[C@H](C)[C@H](O)[C@@H](C)[C@@H](O)[C@@H](C)[C@H](OC(C)=O)[C@@H]1C)C4=O` [Rifabutin], for which the MIC in experiment [1] stood at 64 µg/mL; in experiment [2], 16 µg/mL.
The matching figures for `CN(C)c1cc(NC(=O)CNC(C)(C)C)c(O)c2c1C[C@H]1C[C@H]3[C@H](N(C)C)C(O)=C(C(N)=O)C(=O)[C@@]3(O)C(O)=C1C2=O` [Tigecycline]: 0.5 µg/mL and 1 µg/mL.
The like results for `NC[C@H]1O[C@H](O[C@H]2[C@H](O)[C@@H](O[C@H]3O[C@H](CO)[C@@H](O)[C@H](N)[C@H]3O)[C@H](N)C[C@@H]2N)[C@H](N)C[C@@H]1O` [Tobramycin] were, in that order, 16 µg/mL and 16 µg/mL.
For `Cc1cn([C@H]2C[C@H](O)[C@@H](COP(=O)(O)OP(=O)(O)O[C@H]3O[C@@H](C)[C@@H](O)[C@@H](O)[C@H]3O)O2)c(=O)[nH]c1=O` [dTDP-6-d-Tal], on MAB_4111c (Tle), the “reverse reaction, formation of dTDP-Rha (data not shown)” value was “reverse reaction using dTDP-6-d-Tal as a substrate and observed the formation of dTDP-Rha”.
